From patent publication US20250206738A1, “WRN INHIBITORS” (Nimbus Wadjet, Inc., priority 2023, published 2025) come the findings set out here.

In test [1] the test system is p21 induction in HCT 116 cells. Put plainly: p21 induction in cells (In-Cell Western, p21/GAPDH ratio). Type of test: cell-based. To be noted: Homo sapiens, HCT-116, 24 h, 24 h compound incubation, read-out: P21_EC50. A digest of the protocol: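 HCT 116 cells treated 24 h at 37° C with 11-point, 2-fold dilutions starting typically at 10 μM, in duplicate. Fixed cells immunostained for p21 and GAPDH; 800/700 nm ratio normalised between DMSO and reference WRN inhibitor controls as percent activation. EC50 from non-linear regression.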

In test [2] the target is T1, human Werner helicase (WRN, Uniprot Q14191, amino acids 517-1235 with L1074F point mutation; WRN-BV08) (Homo sapiens, UniProt Q14191, L1074F).
T1 construct: Uniprot Q14191, amino acids 517-1235 with L1074F point mutation; 8xHis (C, cleaved yes); TEV cleavage site (ENLYFQG) (C, cleaved yes); made in house; host or cells: Sf9 insect cells (baculovirus, pFastBac)
The experiment in a line: WRN (BV08) ADP-Glo assay. The format is biochemical. Particulars: WRN-BV08 (aa 517-1235, L1074F); read-out: ADP-Glo_hWRN_IC50. Put shortly: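 WRN 517-1235 (L1074F, untagged, Sf9-expressed), 0.15 nM, preincubated with compound 15 min at 25 °C, then 60 min with […] and 0.1 nM DNA duplex in Bicine pH 7.5, 1 mM MgCl2, 1% DMSO. ADP-Glo luminescence; % inhibition vs NSC-617145 control, four-parameter IC50 fit.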
In general terms: ADP-Glo first removes unused ATP, then detects ADP through luciferase.

SMILES strings stand for the structures.

T1 sequence (Q14191 with tags, fused parts or gaps L1074F): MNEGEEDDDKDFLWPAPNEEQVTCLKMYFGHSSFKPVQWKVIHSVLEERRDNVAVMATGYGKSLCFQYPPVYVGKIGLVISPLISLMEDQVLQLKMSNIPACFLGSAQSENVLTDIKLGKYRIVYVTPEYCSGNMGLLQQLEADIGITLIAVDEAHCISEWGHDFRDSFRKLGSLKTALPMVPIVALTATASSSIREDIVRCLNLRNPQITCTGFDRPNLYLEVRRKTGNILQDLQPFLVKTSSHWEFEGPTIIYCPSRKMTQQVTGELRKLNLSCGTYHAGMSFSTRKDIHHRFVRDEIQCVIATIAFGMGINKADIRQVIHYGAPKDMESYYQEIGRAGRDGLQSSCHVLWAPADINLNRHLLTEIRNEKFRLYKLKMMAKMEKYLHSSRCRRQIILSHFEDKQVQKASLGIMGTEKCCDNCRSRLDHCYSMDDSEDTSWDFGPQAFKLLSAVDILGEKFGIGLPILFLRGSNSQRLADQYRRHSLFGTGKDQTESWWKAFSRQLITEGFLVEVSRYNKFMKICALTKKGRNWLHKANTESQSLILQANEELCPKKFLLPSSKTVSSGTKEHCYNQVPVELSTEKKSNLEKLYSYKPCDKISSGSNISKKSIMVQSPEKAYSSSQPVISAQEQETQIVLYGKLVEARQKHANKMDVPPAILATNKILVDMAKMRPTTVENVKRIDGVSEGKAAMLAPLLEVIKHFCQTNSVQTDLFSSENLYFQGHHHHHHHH

In the case of `CCc1c(N2CCN(C(=O)c3c(O)ccc4ncoc34)CC2)c(=O)n2nc(N(C)C)nc2n1CC(=O)NC12CC(C(C)C)(C1)C2` [I-43, 2-(2-(dimethylamino)-5-ethyl-6-(4-(6-hydroxybenzo[d]oxazole-7-carbonyl)piperazin-1-yl)-7-oxo-[1,2,4]triazolo[1,5-a]pyrimidin-4(7H)-yl)-N-(3-isopropylbicyclo[1.1.1]pentan-1-yl)acetamide], in test [1], the EC50 is 500 to 2000 nM. In addition, the IC50 in test [2] was 5 to 50 nM.

For `CCc1c(N2CCN(C(=O)c3ncnc(C)c3O)[C@H]3CC[C@@H]32)c(=O)c2nc(N(C)C)cnc2n1CC(=O)NC12CC(C3CCC3)(C1)C2` [I-226, N-(3-cyclobutylbicyclo[1.1.1]pentan-1-yl)-2-(2-(dimethylamino)-6-ethyl-7-((1S,6S)-5-(5-hydroxy-6-methylpyrimidine-4-carbonyl)-2,5-diazabicyclo[4.2.0]octan-2-yl)-8-oxopyrido[2,3-b]pyrazin-5(8H)-yl)acetamide], the EC50 in test [1] was ≤ 500 nM. The IC50 in test [2] lay within 5 to 50 nM.

With `CCc1c(N2CCN(C(=O)c3cc(C(C)(C)O)cnc3OC)[C@H]3CC[C@@H]32)c(=O)c2nn(C3=CCOCC3)nc2n1CC(=O)NC12CC(C3CC3)(C1)C2` [I-221, N-(3-cyclopropylbicyclo[1.1.1]pentan-1-yl)-2-(2-(3,6-dihydro-2H-pyran-4-yl)-5-ethyl-6-((1S,6S)-5-(5-(2-hydroxypropan-2-yl)-2-methoxynicotinoyl)-2,5-diazabicyclo[4.2.0]octan-2-yl)-7-oxo-2,7-dihydro-4H-[1,2,3]triazolo[4,5-b]pyridin-4-yl)acetamide], the EC50 in test [1] lay in the range of 2000 to 5000 nM. For the same compound, the IC50 in test [2] lay within 5 to 50 nM.

`CCc1c(N2CCN(C(=O)c3c(O)ccc4ncoc34)CC2)c(=O)c2sc(-c3ccnc(OC)c3)nc2n1CC(=O)NC12CC(C(F)(F)F)(C1)C2` [I-37, 2-(5-ethyl-6-(4-(6-hydroxybenzo[d]oxazole-7-carbonyl)piperazin-1-yl)-2-(2-methoxypyridin-4-yl)-7-oxothiazolo[4,5-b]pyridin-4(7H)-yl)-N-(3-(trifluoromethyl)bicyclo[1.1.1]pentan-1-yl)acetamide]: the EC50 in test [1] was 500 to 2000 nM. In addition, the IC50 in test [2] was in the range of 5 to 50 nM.

Take `CCc1c(N2CCN(C(=O)c3cccc4ncoc34)CC2)c(=O)n2nc(-c3ccnc(OC)c3)nc2n1CC(=O)NC12CC(C(F)(F)F)(C1)C2` [I-231, 2-(6-(4-(benzo[d]oxazole-7-carbonyl)piperazin-1-yl)-5-ethyl-2-(2-methoxypyridin-4-yl)-7-oxo-[1,2,4]triazolo[1,5-a]pyrimidin-4(7H)-yl)-N-(3-(trifluoromethyl)bicyclo[1.1.1]pentan-1-yl)acetamide]: the EC50 in test [1] fell in the range of 2000 to 5000 nM. Further, the IC50 in test [2] is 5 to 50 nM.

For `CCc1c(N2CCN(C(=O)c3c(O)cc(OC)cc3OC)CC2)c(=O)c2nn(-c3ccnc(OC)c3)nc2n1CC(=O)NC12CC(C3CC3)(C1)C2` [I-132, N-{3-cyclopropylbicyclo[1.1.1]pentan-1-yl}-2-{5-ethyl-6-[4-(2-hydroxy-4,6-dimethoxybenzoyl)piperazin-1-yl]-2-(2-methoxypyridin-4-yl)-7-oxo-2H,4H,7H-[1,2,3]triazolo[4,5-b]pyridin-4-yl}acetamide], the EC50 in test [1] was in the range of 2000 to 5000 nM. Moreover, the IC50 in test [2] lay in the range of 5 to 50 nM.

Turning to `CCc1c(N2CCN(C(=O)c3ncnc(C)c3O)CC2)c(=O)n2nc(C3=CCOCC3)nc2n1CC(=O)NC12CC(C3CC3)(C1)C2` [I-32, N-(3-cyclopropylbicyclo[1.1.1]pentan-1-yl)-2-(2-(3,6-dihydro-2H-pyran-4-yl)-5-ethyl-6-(4-(5-hydroxy-6-methylpyrimidine-4-carbonyl)piperazin-1-yl)-7-oxo-[1,2,4]triazolo[1,5-a]pyrimidin-4(7H)-yl)acetamide], the EC50 in test [1] lay in the range of 2000 to 5000 nM. Also, the IC50 in test [2] was in the range of 5 to 50 nM.

For `CCc1c(N2CCN(C(=O)c3c(O)ccc4ncoc34)CC2)c(=O)n2nc(-c3ccnc(OC)c3)nc2n1CC(=O)NC12CC(OC)(C1)C2` [I-241, 2-(5-ethyl-6-(4-(6-hydroxybenzo[d]oxazole-7-carbonyl)piperazin-1-yl)-2-(2-methoxypyridin-4-yl)-7-oxo-[1,2,4]triazolo[1,5-a]pyrimidin-4(7H)-yl)-N-(3-methoxybicyclo[1.1.1]pentan-1-yl)acetamide], the EC50 in test [1] was > 5000 nM. Besides, in test [2], the IC50 was 100 to 500 nM.

Consider `CCc1c([C@@]23CCN(C(=O)c4ncnc(C)c4O)C[C@@H]2C3)c(=O)c2nn(-c3ccnc(OC)c3)nc2n1CC(=O)NC12CC(C(C)C)(C1)C2` (relative stereo) [I-63, rel-2-{5-ethyl-6-[(1R,6S)-3-(5-hydroxy-6-methylpyrimidine-4-carbonyl)-3-azabicyclo[4.1.0]heptan-6-yl]-2-(2-methoxypyridin-4-yl)-7-oxo-2H,4H,7H-[1,2,3]triazolo[4,5-b]pyridin-4-yl}-N-[3-(propan-2-yl)bicyclo[1.1.1]pentan-1-yl]acetamide], for which, in test [1], the EC50 fell in the range of 500 to 2000 nM. Also, in test [2], the IC50 was 5 to 50 nM.

Regarding `CCc1c(N2CCN(C(=O)c3ncnc(C)c3O)[C@H]3CC[C@@H]32)c(=O)c2nn(-c3ccnc(OC(F)F)c3)nc2n1CC(=O)NC12CC(C3CC3)(C1)C2` [I-223, N-(3-cyclopropylbicyclo[1.1.1]pentan-1-yl)-2-(2-(2-(difluoromethoxy)pyridin-4-yl)-5-ethyl-6-((1S,6S)-5-(5-hydroxy-6-methylpyrimidine-4-carbonyl)-2,5-diazabicyclo[4.2.0]octan-2-yl)-7-oxo-2,7-dihydro-4H-[1,2,3]triazolo[4,5-b]pyridin-4-yl)acetamide], the EC50 in test [1] was > 5000 nM. Moreover, in test [2], the IC50 was in the range of 5 to 50 nM.

With `CCc1c(N2CCN(C(=O)CC3CCCC(=O)N3)[C@H]3CC[C@@H]32)c(=O)c2nn(C3=CCOCC3)nc2n1CC(=O)NC12CC(C(C)C)(C1)C2` (stereo partly drawn) [I-235, 2-(2-(3,6-dihydro-2H-pyran-4-yl)-5-ethyl-7-oxo-6-((1S,6S)-5-(2-(6-oxopiperidin-2-yl)acetyl)-2,5-diazabicyclo[4.2.0]octan-2-yl)-2,7-dihydro-4H-[1,2,3]triazolo[4,5-b]pyridin-4-yl)-N-(3-isopropylbicyclo[1.1.1]pentan-1-yl)acetamide], the EC50 in test [1] was > 5000 nM. In addition, in test [2], the IC50 was in the range of 5 to 50 nM.

Take `CCc1c(N2CCN(C(=O)c3ncnc(C)c3O)CC2)c(=O)n2nc(-c3ccnc(OC)c3)nc2n1CCC(=O)NC12CC(C(F)(F)F)(C1)C2` [I-13, 3-(5-ethyl-6-(4-(5-hydroxy-6-methylpyrimidine-4-carbonyl)piperazin-1-yl)-2-(2-methoxypyridin-4-yl)-7-oxo-[1,2,4]triazolo[1,5-a]pyrimidin-4(7H)-yl)-N-(3-(trifluoromethyl)bicyclo[1.1.1]pentan-1-yl)propanamide]: the EC50 in test [1] is > 5000 nM. In addition, the IC50 in test [2] was > 500 nM.

Turning to `CCc1c(N2CCN(C(=O)c3c(O)ccc4ncoc34)CC2)c(=O)n2nc(-c3ccnc(OC)c3)nc2n1CC(=O)NC12CC(C(F)(F)C(F)F)(C1)C2` [I-41, 2-(5-ethyl-6-(4-(6-hydroxybenzo[d]oxazole-7-carbonyl)piperazin-1-yl)-2-(2-methoxypyridin-4-yl)-7-oxo-[1,2,4]triazolo[1,5-a]pyrimidin-4(7H)-yl)-N-(3-(1,1,2,2-tetrafluoroethyl)bicyclo[1.1.1]pentan-1-yl)acetamide], the EC50 in test [1] is ≤ 500 nM. Moreover, in test [2], the IC50 lay within 5 to 50 nM.

`CCc1c(N2CCN(C(=O)c3c(O)ccc4ncoc34)CC2)c(=O)n2nc(-c3ccnc(OC)c3)nc2n1CC(=O)NC12CC(C3CCC3)(C1)C2` [I-28, N-(3-cyclobutylbicyclo[1.1.1]pentan-1-yl)-2-(5-ethyl-6-(4-(6-hydroxybenzo[d]oxazole-7-carbonyl)piperazin-1-yl)-2-(2-methoxypyridin-4-yl)-7-oxo-[1,2,4]triazolo[1,5-a]pyrimidin-4(7H)-yl)acetamide]: the EC50 in test [1] was ≤ 500 nM. Further, in test [2], the IC50 was ≤ 5 nM.

For `CCc1c(N2CCN(C(=O)c3cnn(C)c3)CC2)c(=O)n2nc(C3=CCOCC3)nc2n1CC(=O)NC1CC2(C1)CC2F` (stereo not shown) [I-249, 2-(2-(3,6-dihydro-2H-pyran-4-yl)-5-ethyl-6-(4-(1-methyl-1H-pyrazole-4-carbonyl)piperazin-1-yl)-7-oxo-[1,2,4]triazolo[1,5-a]pyrimidin-4(7H)-yl)-N-(1-fluorospiro[2.3]hexan-5-yl)acetamide], in test [1], the EC50 was > 5000 nM. The IC50 in test [2] is 100 to 500 nM.

As for `CCc1c(N2CCN(C(=O)c3c(O)ccc4ncoc34)CC2)c(=O)n2nc(-c3ccnc(OC)c3)nc2n1CC(=O)NC12CC(C(C)C)(C1)C2` [I-35, 2-(5-ethyl-6-(4-(6-hydroxybenzo[d]oxazole-7-carbonyl)piperazin-1-yl)-2-(2-methoxypyridin-4-yl)-7-oxo-[1,2,4]triazolo[1,5-a]pyrimidin-4(7H)-yl)-N-(3-isopropylbicyclo[1.1.1]pentan-1-yl)acetamide], the EC50 in test [1] was ≤ 500 nM. Further, the IC50 in test [2] is ≤ 5 nM.

`CCc1c(N2CCN(C(=O)c3c(O)ccc4ncoc34)CC2)c(=O)n2ncnc2n1CC(=O)NC12CC(C3CCC3)(C1)C2` [I-243, N-(3-cyclobutylbicyclo[1.1.1]pentan-1-yl)-2-(5-ethyl-6-(4-(6-hydroxybenzo[d]oxazole-7-carbonyl)piperazin-1-yl)-7-oxo-[1,2,4]triazolo[1,5-a]pyrimidin-4(7H)-yl)acetamide]: the EC50 in test [1] is > 5000 nM. In addition, the IC50 in test [2] lay within 100 to 500 nM.
